{"source": "patent US20160120915A1", "about": "“METHODS FOR MANIPULATING IMMUNE RESPONSES BY ALTERING MICROBIOTA” (NEW YORK UNIVERSITY, priority 2013, published 2016)", "key": {"[1]": {"system": "small intestine lamina propria lymphocytes", "assay": "EL-PAT: flow cytometry of small intestine lamina propria lymphocytes", "assay_type": "in vivo, C57BL/6 mice", "conditions": "7-week old; for small intestine CD4+ IL-17A+ (IL-17A expression): males, vs control", "method": "For the experiments, dams and their litters were divided into control and antibiotic groups. In the EL-PAT study dams in the antibiotic groups received Tylosin tartrate (Sigma Aldrich, St. Louis Mo.) dissolved in distilled deionized water (neutral pH) at a concentration of 0.33 mg/ml, and dams in the control group received non-acidified water. Mice in the PAT3 group received two additional doses of antibiotics at day 27 and 36 of life for 3 days. In some experiments, C57BL/6 mice were exposed to one, PAT1, (n=17, M=9, F=8) or three, PAT3, (n=19, M=10, F=9) doses of the macrolide Tylosin in non-acidified water or non-acidified water alone (control, n=12, M=9, F=3), early-in-life, to mirror pediatric antibiotic exposures. For the first antibiotic pulse […] of Tylosin tartrate (Sigma) was dissolved in 250 ml of non-acidified water and given to PAT1 and PAT3 lactating dams at pup day 5 of life for 5 days. For the second and third pulse, pups received the antibiotic directly at day 27 and day 36 of life respectively, for three days. Mice were sacrificed at 7 weeks of age and fecal, ileal and cecal contents were collected. Throughout the experiment mouse weight and fecal contents were collected. After euthanasia of the mice by CO2 asphyxiation, small intestines were excised and placed in cold calcium and magnesium-free HBSS supplemented with HEPES-Bicarbonate and 5% FBS (CMF). Peyer's patches were removed and the intestine was opened longitudinally along its entire length. Intestinal contents were removed by washing thoroughly with cold CMF and treated with 1 mM DTT to remove contaminating intra-epithelial lymphocytes. Subsequently, the intestinal tissue was treated twice with 1.3 mM EDTA to remove epithelial cells. To isolate lamina propria lymphocytes, intestinal tissue was cut laterally into ˜0.5 cm pieces and digested in collagenase IV digestion mix (0.5 mg/ml of collagenase IV, 200 ug/ml of DNase 1 suspended in RPMI supplemented with 10% FBS and HEPES for 1 hour. For each digestion procedure, samples were incubated at 37° C. with vigorous shaking After each treatment, cell isolates were filtered through 100 μm diameter nylon mesh (BD Bioscience). For further purification of leukocytes, intestinal cell suspensions were subjected to a 44% /67% discontinuous Percoll (GE Healthcare Life Sciences) gradient. Cells were spun at 2,200 rpm for 20 minutes and collected at the 44% /67% Percoll interface. Viable cells were carefully removed from the interface, washed, and suspended in RPMI complete media. […] All cells were acquired on a LSRII (BD Bioscience) and analyzed using FlowJo software (version 9.3.2; Tree Star Inc.). […]"}, "terminal ileum": {"system": "terminal ileum", "assay": "NOD: ileal gene expression profiling by microarray", "assay_type": "in vivo, NOD mice", "conditions": "for differentially regulated genes that were down: PAT vs Control", "method": "Ileal gene expression profiling of 6-week control, STAT, and PAT animal groups, was performed using the Affymetrix Genechip system (Affymetrix, Santa Clara Calif.). Total RNA quality and quantity were determined using the Nanodrop ND-1000, agarose gel, and Agilent 2100 Bioanalyser. Total RNA (100 ng) was used to prepare cDNA following the Affymetrix 3′IVT Express Kit labeling protocol (Affymetrix). Standardized array processing procedures recommended by Affymetrix were performed, including hybridization, fluidics processing and scanning of the Affymetrix Mouse Genome 430 2.0 Array chips. The affy package in R was used to normalize the raw data (Affymetrix CEL files) by Robust Multichip Average (RMA) algorithm. Then the limma package was used to identify regulated genes between groups and generate lists of differentially expressed genes using linear models and empirical Bayes method with an FDR-adjusted p-value cut-off of p<0.05 (Smyth, 2004, Statistical Applications in Genetics and Molecular Biology 3, No. 1, Article 3).\nRNA was extracted from the terminal ileum of the 6-week old NOD mice. Raw probe intensities were normalized by the Robust Multichip Average (RMA) algorithm using affy package in R and then the limma package was used to identify regulated genes using linear models and empirical Bayes method with an FDR-adjusted p-value cut off of p<0.05 (Smyth 2004, Statistical Applications in Genetics and Molecular Biology 3, No. 1, Article 3.)."}, "[2]": {"conditions": "terminal ileum, NOD male mice, microarray"}, "[3]": {"conditions": "terminal ileum, NOD male mice, microarray, probe with greatest fold change"}}, "note": "Counter-ions that a name gives are not always drawn."}
{"compound": "CC[C@H]1OC(=O)C[C@@H](O)[C@H](C)[C@@H](O[C@@H]2O[C@H](C)[C@@H](O[C@H]3C[C@@](C)(O)[C@@H](O)[C@H](C)O3)[C@H](N(C)C)[C@H]2O)[C@@H](CC=O)C[C@@H](C)C(=O)/C=C/C(C)=C/[C@@H]1CO[C@@H]1O[C@H](C)[C@@H](O)[C@@H](OC)[C@H]1OC", "note": "[Tylosin, Tylosin tartrate]", "values": [{"measurement": "intestinal CD4+ IL-17A+ populations", "setting": "[1]; females, three antibiotic doses, p<0.01", "value": "significantly decreased"}, {"measurement": "CD4− IL-17A+ populations", "setting": "[1]; females, three therapeutic doses, p<0.05", "value": "decreased"}, {"measurement": "small intestine CD4+ IL-17A+ (IL-17A expression)", "setting": "[1]; one therapeutic dose", "value": "significantly decreased"}, {"measurement": "small intestine CD4+ IL-17A+ (IL-17A expression)", "setting": "[1]; three therapeutic doses", "value": "significantly decreased"}, {"measurement": "differentially regulated genes that were down", "setting": "terminal ileum; NOD females", "value": 42.1, "unit": "%"}, {"measurement": "differentially regulated genes that were down", "setting": "terminal ileum; NOD males", "value": 69.3, "unit": "%"}, {"measurement": "log2 fold change (PAT/control), Arl5b", "setting": "terminal ileum; [2]", "value": 2.42}, {"measurement": "log2 fold change (PAT/control), Bhmt", "setting": "terminal ileum; [2]", "value": "−1.52"}, {"measurement": "log2 fold change (PAT/control), Ccl20", "setting": "terminal ileum; [2]", "value": "−0.86"}, {"measurement": "log2 fold change (PAT/control), Clec2d", "setting": "terminal ileum; [2]", "value": "−0.65"}, {"measurement": "log2 fold change (PAT/control), Dio1", "setting": "terminal ileum; [2]", "value": "−1.34"}, {"measurement": "log2 fold change (PAT/control), Dusp14", "setting": "terminal ileum; [2]", "value": 2.22}, {"measurement": "log2 fold change (PAT/control), Edn2", "setting": "terminal ileum; [2]", "value": "−1.67"}, {"measurement": "log2 fold change (PAT/control), Ereg", "setting": "terminal ileum; [2]", "value": 1.73}, {"measurement": "log2 fold change (PAT/control), G6pc", "setting": "terminal ileum; [2]", "value": "−2.85"}, {"measurement": "log2 fold change (PAT/control), Gjb3", "setting": "terminal ileum; [2]", "value": 0.77}, {"measurement": "log2 fold change (PAT/control), Gzma", "setting": "terminal ileum; [2]", "value": "−1.48"}, {"measurement": "log2 fold change (PAT/control), Il1rn", "setting": "terminal ileum; [2]", "value": 1.70}, {"measurement": "log2 fold change (PAT/control), Il17rd", "setting": "terminal ileum; [2]", "value": "−0.58"}, {"measurement": "log2 fold change (PAT/control), Irf1", "setting": "terminal ileum; [2]", "value": "−1.14"}, {"measurement": "log2 fold change (PAT/control), Maff", "setting": "terminal ileum; [2]", "value": 2.22}, {"measurement": "log2 fold change (PAT/control), Phlda1", "setting": "terminal ileum; [2]", "value": 1.96}, {"measurement": "log2 fold change (PAT/control), S100a14", "setting": "terminal ileum; [2]", "value": 1.00}, {"measurement": "log2 fold change (PAT/control), Saa1", "setting": "terminal ileum; [2]", "value": "−4.00"}, {"measurement": "log2 fold change (PAT/control), Saa2", "setting": "terminal ileum; [2]", "value": "−1.44"}, {"measurement": "log2 fold change (PAT/control), Tifa", "setting": "terminal ileum; [2]", "value": "−1.32"}, {"measurement": "log2 fold change (PAT/control), Tppp", "setting": "terminal ileum; [2]", "value": "−1.35"}, {"measurement": "log2 fold change (PAT/control), Acsl3", "setting": "terminal ileum; [3]", "value": 1.59}, {"measurement": "log2 fold change (PAT/control), Ccl28", "setting": "terminal ileum; [3]", "value": "−0.64"}, {"measurement": "log2 fold change (PAT/control), Cd38", "setting": "terminal ileum; [3]", "value": "−1.02"}, {"measurement": "log2 fold change (PAT/control), Chka", "setting": "terminal ileum; [3]", "value": 1.97}, {"measurement": "log2 fold change (PAT/control), Flrt3", "setting": "terminal ileum; [3]", "value": 2.56}, {"measurement": "log2 fold change (PAT/control), Il1rl1", "setting": "terminal ileum; [3]", "value": 1.64}, {"measurement": "log2 fold change (PAT/control), Klf4", "setting": "terminal ileum; [3]", "value": 0.86}, {"measurement": "log2 fold change (PAT/control), Slc2a1", "setting": "terminal ileum; [3]", "value": 1.26}, {"measurement": "log2 fold change (PAT/control), Socs2", "setting": "terminal ileum; [3]", "value": "−0.77"}, {"measurement": "log2 fold change (PAT/control), Tnfrsf12a", "setting": "terminal ileum; [3]", "value": 1.72}, {"measurement": "log2 fold change (PAT/control), Tnfsf10", "setting": "terminal ileum; [3]", "value": "−1.46"}, {"measurement": "log2 fold change (PAT/control), Zfand2a", "setting": "terminal ileum; [3]", "value": 2.11}, {"measurement": "log2 fold change (PAT/control), Rab30", "setting": "terminal ileum; terminal ileum, PAT-treated NOD male mice, 6-week, microarray", "value": 4.27}, {"measurement": "log2 fold change (PAT/control), Areg", "setting": "terminal ileum; terminal ileum, PAT-treated NOD male mice, microarray", "value": 3.94}]}
